Assays:
[1] = molecular target: 72 kDa type IV collagenase (Homo sapiens, UniProt P08253); experiment: Inhibition of Gelatinase A, matrix metalloprotease-2
L1210 = experiment: Compound was evaluated for the inhibitory activity against L1210 cell lines; format: functional, cell-based; conditions: Mus musculus
[2] = molecular target: Matrix metalloproteinase-9 (Homo sapiens, UniProt P14780); experiment: Inhibition of Gelatinase B, matrix metalloprotease-9
Sequence of Matrix metalloproteinase-9 (P14780 whole entry): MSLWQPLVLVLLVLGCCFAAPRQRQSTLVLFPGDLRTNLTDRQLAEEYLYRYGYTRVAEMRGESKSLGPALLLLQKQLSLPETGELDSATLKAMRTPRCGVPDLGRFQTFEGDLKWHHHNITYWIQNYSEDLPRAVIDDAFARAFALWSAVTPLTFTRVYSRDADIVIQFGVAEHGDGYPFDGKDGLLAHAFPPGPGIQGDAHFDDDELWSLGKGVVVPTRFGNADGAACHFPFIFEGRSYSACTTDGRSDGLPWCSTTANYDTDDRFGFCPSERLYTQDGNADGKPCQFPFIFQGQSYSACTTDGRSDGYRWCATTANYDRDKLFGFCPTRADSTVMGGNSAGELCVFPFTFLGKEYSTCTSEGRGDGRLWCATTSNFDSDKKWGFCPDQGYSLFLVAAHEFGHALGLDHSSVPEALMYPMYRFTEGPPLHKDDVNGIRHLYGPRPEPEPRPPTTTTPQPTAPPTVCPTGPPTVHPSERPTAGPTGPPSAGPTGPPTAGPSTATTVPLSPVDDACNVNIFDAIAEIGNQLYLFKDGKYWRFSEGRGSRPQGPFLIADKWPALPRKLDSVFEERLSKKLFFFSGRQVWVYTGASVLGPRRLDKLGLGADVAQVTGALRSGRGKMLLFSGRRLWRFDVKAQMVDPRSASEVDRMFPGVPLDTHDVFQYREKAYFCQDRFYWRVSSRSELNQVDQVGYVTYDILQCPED

Sequence of 72 kDa type IV collagenase (P08253 whole entry): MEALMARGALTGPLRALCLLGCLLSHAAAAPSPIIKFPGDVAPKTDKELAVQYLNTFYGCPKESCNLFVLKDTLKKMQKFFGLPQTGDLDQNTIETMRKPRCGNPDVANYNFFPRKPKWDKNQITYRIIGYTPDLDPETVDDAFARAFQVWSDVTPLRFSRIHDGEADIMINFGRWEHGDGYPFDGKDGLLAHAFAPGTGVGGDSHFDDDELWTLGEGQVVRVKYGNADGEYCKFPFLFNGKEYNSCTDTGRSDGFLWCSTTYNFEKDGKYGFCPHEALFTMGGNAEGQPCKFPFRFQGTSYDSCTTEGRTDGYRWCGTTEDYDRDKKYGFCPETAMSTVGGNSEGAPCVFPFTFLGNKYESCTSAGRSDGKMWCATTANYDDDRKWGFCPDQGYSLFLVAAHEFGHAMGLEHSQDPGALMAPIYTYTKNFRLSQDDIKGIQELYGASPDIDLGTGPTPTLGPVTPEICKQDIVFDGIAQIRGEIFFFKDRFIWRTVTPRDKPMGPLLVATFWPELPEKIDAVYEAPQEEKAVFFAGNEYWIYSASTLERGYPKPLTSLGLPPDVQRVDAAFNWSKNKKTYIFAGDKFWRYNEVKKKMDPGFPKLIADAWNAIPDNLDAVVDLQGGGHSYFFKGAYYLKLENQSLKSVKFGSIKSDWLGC

With `CNC(=O)[C@H](Cc1ccccc1)NC(=O)[C@H]1[C@@H](COCC(=O)NO)[C@@H]1CSc1ccccc1` the IC50 [1] was 32 µM, the IC50 (L1210) was greater than 1000 µM and the IC50 [2] was 36 µM.
